Results from patent US20100254928A1, “NOVEL COMPOSITION CONTAINING OZONIZED SURFACTANT” (priority 2007, published 2010).
“And” between values parts separate entries of the source, which are not always exact repeats. Identical values can stand only once.

Legend:
[1] = tested on: Cladosporium cladosporioides; assay: Minimum inhibitory concentration test; format: cell-based; details: 96 h, 25° C., 1 × 10^5/mL
Description: (§1) In order to check the antimicrobial and antifungal performance of the ozonized surfactant, bacteriostatic and bactericidal effects of the ozonized surfactant against five kinds of microorganisms were examined. The five kinds of target microorganisms were Staphylococcus aureus as a prokaryotic gram-positive bacterium, Escherichia coli as a prokaryotic gram-negative bacterium, Saccharomyces cerevisiae and Trichophyton mentagrophytes as fungi which are eukaryotic microorganisms, and Cladosporium cladosporioides. One loopful of each strain was inoculated in a medium optimum for the strain, and cultured under culture conditions optimum for the strain to prepare a cell suspension for inoculation.
(§2) The solution A obtained in Example 4 was placed in test tubes, and was then diluted with sterilized water 2-, 4-, 8-, 16-, 32-, 64-, 128-, 256-, and 512-fold to prepare 10 levels of diluted ozonized surfactant solutions. Into L-shaped test tubes for a biophotorecorder, 9 mL of each medium shown in Table 1 was dispensed and sterilized by steam. Then, 1 mL of each of the 10 levels of diluted ozonized surfactant solutions was added aseptically to the L-shaped test tubes to prepare 10 mL of 10-, 20-, 40-, 80-, 160-, 320-, 640-, 1280-, 2560-, and 5120-fold diluted solutions of the solution A (hereinafter, referred to as a “graduated dilution series to be tested”). Into the graduated dilution series to be tested, 0.1 mL of the cell suspension for inoculation was inoculated (the initial number of cells of each microorganism is shown in Table 1). The L-shaped test tubes into which the cell suspension had been inoculated were set in a biophotorecorder (made by Advantec Toyo Kaisha, Ltd.) and subjected to shaking culture (30 rpm) under conditions shown in Table 1. The test tubes to be used were sterilized by dry heat (165° C. for 1 hour), and the media, sterilized water, and tools were sterilized by steam in an autoclave (121° C. for 15 minutes). In the following tests, they were sterilized in the same manner.
(§3) Another graduated dilution series was prepared between the temporary minimum inhibitory concentration and the concentration of the ozonized surfactant nearest to the temporary minimum inhibitory concentration, at which turbidity occurred. Then, the same operation as described above was again carried out. […] This MIC test against these five kinds of microorganisms was carried out also using, as a control, the surfactant solution before ozone treatment.

Escherichia coli [2] = assay: Minimum inhibitory concentration test; format: cell-based; details: 24 h, 30° C., 1 × 10^7/mL
Description: as §1, §2, §3

Saccharomyces cerevisiae [3] = assay: Minimum inhibitory concentration test; format: cell-based; details: 48 h, 28° C., 1 × 10^6/mL
Description: as §1, §2, §3

Staphylococcus aureus [4] = assay: Minimum inhibitory concentration test; format: cell-based; details: 24 h, 37° C., 1 × 10^7/mL
Description: as §1, §2, §3

[5] = tested on: Trichophyton mentagrophytes; assay: Minimum inhibitory concentration test; format: cell-based; details: 96 h, 25° C., 1 × 10^5/mL
Description: as §1, §2, §3

[6] = tested on: Cladosporium cladosporioides; assay: Minimum bactericidal concentration test; format: cell-based; details: 96 h, 25° C.
Description: (§4) Here, the ozonized surfactant was diluted 100-fold, and therefore the ozonized surfactant was considered to be ineffective. […] [table]

Escherichia coli [7] = assay: Minimum bactericidal concentration test; format: cell-based; details: 24 h, 30° C.
Description: as §4

Saccharomyces cerevisiae [8] = assay: Minimum bactericidal concentration test; format: cell-based; details: 48 h, 28° C.
Description: as §4

Staphylococcus aureus [9] = assay: Minimum bactericidal concentration test; format: cell-based; details: 24 h, 37° C.
Description: as §4

[10] = tested on: Trichophyton mentagrophytes; assay: Minimum bactericidal concentration test; format: cell-based; details: 96 h, 25° C.
Description: as §4

[11] = tested on: Sprague-Dawley female rats; assay: Single dose oral toxicity test; format: in vivo; design: key to General conditions, 3 hours after administration / General conditions, 1 hour after administration / General conditions, 2 hours after administration: D: diarrhea; LS: loose stool; RF: reddish feces; DL: decrease in locomotor activity; *: the result was observed at 4 hours after administration; details: for rats that developed symptoms on the administration day: transient, resolved by the 2nd day
Description: In order to roughly determine the lethal dose of the ozonized surfactant used for the present invention, an acute single dose oral toxicity test was performed according to “OECD Guideline for Testing of Chemicals, Acute Oral Toxicity-Acute Toxic Class Method”, Revised Guideline 423, adopted on Mar. 22, 1996 and revised on Dec. 17, 2001) by administering the solution A described in Example 4 to 12 Sprague-Dawley [Ctr: CD (SD), SPF ] female rats. Rats were divided into 4 groups each consisting of 3 rats. For each rat, an appropriate liquid volume was calculated based on individual body weight so that the solution A in an amount equivalent to 300 mg/kg of the ozonized surfactant was administered to 2 groups (6 rats) and the solution in an amount equivalent to 2000 mg/kg was administered to the other 2 groups (6 rats), with the use of a gastric tube for rats. (These groups will be hereinafter referred to as 300 mg/kg administration groups and 2000 mg/kg administration groups, respectively.) Counting the administration day as the 1st day, general conditions of the rats were observed until the 15th day, and the number of dead individuals was counted. The general conditions of all the animals were observed once before administration, intermittently for 1 hour after administration, and subsequently about every hour until 3 hours (of some rats until 4 hours) after administration. Since the 2nd day, the observation was repeated daily.
In the table, D, LS, RF and DL mean diarrhea, loose stool, reddish feces and decrease in locomotor activity, respectively.

insects such as ants = assay: Repellent activity (Test Example 14); format: in vivo, pill bug; details: 8 hours
Description: The repellent performance of the ozonized surfactant of the present invention was checked. […] In addition, 1 g of honey was instilled into the center. […] These specimens were placed on leaf mold in a flower bed, and the conditions were observed 8 hours later.

[12] = 300 mg/kg administration group (6 rats)
[13] = 2000 mg/kg administration group (6 rats)
[14] = 2000 mg/kg oral, per animal, — = no symptom, listed as solution A

## Ozonized POE (10 EO) oleyl ether [Example 4]
[1]
  Minimum inhibitory concentration: 0.09%
Escherichia coli [2]
  Minimum inhibitory concentration: 0.25%
Saccharomyces cerevisiae [3]
  Minimum inhibitory concentration: 0.02%
Staphylococcus aureus [4]
  Minimum inhibitory concentration: 0.11%
[5]
  Minimum inhibitory concentration: 0.03%
[6]
  Minimum bactericidal concentration: 0.18%
Escherichia coli [7]
  Minimum bactericidal concentration: 0.30%
Saccharomyces cerevisiae [8]
  Minimum bactericidal concentration: 0.03%
Staphylococcus aureus [9]
  Minimum bactericidal concentration: 0.11%
[10]
  Minimum bactericidal concentration: 0.03%
[11]; [12]
  Death until the 15th day: Death was not found
  rats that developed symptoms on the administration day: 1 rat
[11]; 300 mg/kg oral, per animal, — = no symptom
  General conditions, 3 hours after administration: LS*
[11]; 2-15 days, all 12 rats
  Decrease in locomotor activity (number of animals): 0
  Diarrhea or loose stool (number of animals): 0
  Reddish feces (number of animals): 0
[11]; [13]
  Death until the 15th day: Death was not found
  rats that developed symptoms on the administration day: 5 rats
[11]; [14]
  General conditions, 1 hour after administration: D, DL and D, RF and D (2×)
  General conditions, 2 hours after administration: D
  General conditions, 3 hours after administration: D* and LS and D (2×)
[11]; 300 and 2000 mg/kg, 15 days
  Body weight transition during the observation period: favorable
[11]; 1 hour, all 12 rats
  Decrease in locomotor activity (number of animals): 2
  Reddish feces (number of animals): 1
[11]; 1 hour, all 12 rats (300 and 2000 mg/kg)
  Diarrhea or loose stool (number of animals): 4
[11]; 2 hours, all 12 rats
  Decrease in locomotor activity (number of animals): 0
  Diarrhea or loose stool (number of animals): 3
  Reddish feces (number of animals): 0
[11]; 3 hours, all 12 rats
  Decrease in locomotor activity (number of animals): 0
  Diarrhea or loose stool (number of animals): 5
  Reddish feces (number of animals): 0
[11]; oral, rat
  LD50 cut-off value: infinite
  acute toxicity classification of the GHS: Category 5 or does not correspond to any of the acute toxicity categories
Insects such as ants; 2 mL of 1% aqueous solution on tissue paper with 1 g honey
  insects gathered on the specimen: did not gather at all
Insects such as ants; 2 mL of 10% aqueous solution on tissue paper with 1 g honey
  insects gathered on the specimen: did not gather at all
